Reference: patent US20150126448A1 (Genentech, Inc., priority 2003, published 2015)

Columns and labels:
BxPC3 cells [1] = test: Inhibition of HGF-dependent cell proliferation in BxPC3 cells; assay type: cell-based, human; details: 5 μg/ml test protein, 25 ng/ml HGF WT; for inhibition of HGF-dependent cell proliferation activity (% activity II): normalized to 5 μg/ml mutant alone (0%) and 25 ng/ml HGF WT (100%); for inhibition of HGF-dependent cell proliferation activity (% activity I): normalized to no HGF (0%) and 25 ng/ml HGF WT (100%)
Protocol: BxPC3 (human pancreatic adeocarcinoma; ECACC No. 93120816) were obtained from the European Collection of Cell Cultures (CAMR Centre for Applied Microbiology and Research, Porton Down, Salisbury, Wiltshire (UK) and were used in an HGF-dependent proliferation assay. Cells were grown in RPMI medium containing 10% FCS (Sigma F-6178, St. Louis, Mo.), 10 mM HEPES, 2 mM glutamine, 1× Penicillin-Streptomycin (Invitrogen 15140-122, Carlsbad, Calif.), 100× penicillin 10000 μg/ml-streptomycin 10000 mg/ml), and G418 (Invitrogen 10131-035) at 250 mg/ml. The cells were sequentially washed with PBS, PBS containing 10 mM EDTA, then removed using trypsin. The cells were harvested into serum containing media and the cell density was determined using a hemacytometer. Cells at 50000-75000/ml were seeded at 200 μl per well into a white bottom MT plate (Cultur Plate™ 6005680 Packard/PerkinElmer, Boston, Mass.) using the inside 60 wells only and allowed to grow for 24 h. The media was removed, the cells were washed with PBS and 200 ml of serum-free media containing 0.1% BSA (SF-BSA) was added back to the cells. The cells were grown for an additional 24 h. […] Controls were run in the absence of HGF and/or in the absence of test HGF proteins.
The cells were allowed to grow for 72 h and then assayed using the CellTiter-Glo Luminescent Kit (Promega G7571, Madison, Wis.). The procedure followed is described in Promega Technical Bulletin TB288. The microtiter plate was read on a Tropix TR717 microplate luminometer (Berthold 75323 Bad Wildbad, Germany). The percent of stimulation or inhibition of cell proliferation was normalized to the appropriate controls.

MDA-MB-435 cells = test: MDA-MB-435 cell migration transwell assay; assay type: cell-based
Protocol: (A) Representative purity of HGF mutants. […] Incomplete conversion of the secreted single-chain form by CHO expression in 1% FBS (v/v) is shown in lane 1. […] Molecular weight markers are shown as Mr×10^3. […] Values represent the averages of 4-8 independent experiments±SD.
Breast cancer cells MDA-MB-435 (HTB-129, ATCC, Manassas, Va.) were cultured in recommended serum-supplemented medium. Confluent cells were detached in PBS containing 10 mM EDTA and diluted with serum-free medium to a final concentration of 0.6−0.8×10^5 cells/ml. 0.2 ml of this suspension ([…]) was added in triplicate to the upper chambers of 24-well transwell plates (8 μm pore size) (HTS Multiwell™ Insert System, Falcon, Franklin Lakes, N.J.) pre-coated with 10 μg/ml of rat tail collagen Type I (Upstate, Lake Placid, N.Y.). […] After incubation for 13-14 h, cells on the apical side of the membrane were removed and those that migrated to the basal side were fixed in 4% paraformaldehyde followed by staining with a 0.5% crystal violet solution. After washing and airdrying, cells were solubilized in 10% acetic acid and the A560 was measured on a Molecular Devices microplate reader. […] Photographs of stained cells were taken with a Spot digital camera (Diagnostics Instruments, Inc., Sterling Heights, Mich.) connected to a Leitz microscope (Leica Mikroskope & Systeme GmbH, Wetzlar, Germany). […]

BxPC3 cells [2] = test: HGF-dependent proliferation assay in BxPC3 cells (stimulation); assay type: cell-based, human; details: n=12
Protocol: BxPC3 (human pancreatic adeocarcinoma; ECACC No. 93120816) were obtained from the European Collection of Cell Cultures (CAMR Centre for Applied Microbiology and Research, Porton Down, Salisbury, Wiltshire (UK) and were used in an HGF-dependent proliferation assay. Cells were grown in RPMI medium containing 10% FCS (Sigma F-6178, St. Louis, Mo.), 10 mM HEPES, 2 mM glutamine, 1× Penicillin-Streptomycin (Invitrogen 15140-122, Carlsbad, Calif.), 100× penicillin 10000 μg/ml-streptomycin 10000 mg/ml), and G418 (Invitrogen 10131-035) at 250 mg/ml. The cells were sequentially washed with PBS, PBS containing 10 mM EDTA, then removed using trypsin. The cells were harvested into serum containing media and the cell density was determined using a hemacytometer. Cells at 50000-75000/ml were seeded at 200 μl per well into a white bottom MT plate (Cultur Plate™ 6005680 Packard/PerkinElmer, Boston, Mass.) using the inside 60 wells only and allowed to grow for 24 h. The media was removed, the cells were washed with PBS and 200 ml of serum-free media containing 0.1% BSA (SF-BSA) was added back to the cells. The cells were grown for an additional 24 h. […]
The cells were allowed to grow for 72 h and then assayed using the CellTiter-Glo Luminescent Kit (Promega G7571, Madison, Wis.). […] The microtiter plate was read on a Tropix TR717 microplate luminometer (Berthold 75323 Bad Wildbad, Germany). […]

Met-IgG fusion protein = Met-IgG fusion protein (UniProt P08581); test: HGF/Met-IgG competition binding ELISA; competitor: 1 nM biotinylated HGF

Substance | inhibition of HGF-dependent cell proliferation activity (% activity II) (BxPC3 cells [1]) [%] | inhibition of HGF-dependent cell proliferation activity (% activity I) (BxPC3 cells [1]) [%] | other results
HGF R695A: full length two-chain HGF with R695A mutation in the β-chain | 68 | 79 | –
HGF β: HGF β-chain residues Val495 to Ser728 with Cys604 to Ser mutation and C-terminal His6 tag | – | – | effect in cell migration assay (MDA-MB-435 cells; concentrations of up to 0.95 μM): had no effect
HGF: wild type hepatocyte growth factor, disulfide-linked two-chain α/β heterodimer, recombinant from CHO cells | – | – | proliferation activity at 25 ng/ml as % of the activity at 100 ng/ml (BxPC3 cells [2]): 83.6±13.0%
K641A [c173] (ligand) | – | – | IC50mut/IC50WT (Met-IgG fusion protein): 1.04
proHGF: uncleavable single chain form of HGF with amino acid changes R494E and R424A | 75 | 63 | stimulation of cell migration (MDA-MB-435 cells; 1 nM, MDA-MB435 cells, FIG. 2B, 2C): did not stimulate cell migration
